Values joined by “and” are separate entries in the source; they are usually repeats but may differ in a detail not shown here. Identical values can stand only once. “Also recorded” adds a separate entry of the source. Like-named read-outs stand apart in the source and are kept apart here.
Columns and labels:
GluK2 kainate receptors = target: T1, GluK2 kainate receptors (Rattus norvegicus, UniProt P42260); assay: Kainate receptors in Xenopus oocytes (selectivity); format: cell-based; conditions: 20 μM
T1 construct: expressed in transfected cells; host or cells: Xenopus laevis oocytes, cRNA injection
T1 sequence (P42260 32-908): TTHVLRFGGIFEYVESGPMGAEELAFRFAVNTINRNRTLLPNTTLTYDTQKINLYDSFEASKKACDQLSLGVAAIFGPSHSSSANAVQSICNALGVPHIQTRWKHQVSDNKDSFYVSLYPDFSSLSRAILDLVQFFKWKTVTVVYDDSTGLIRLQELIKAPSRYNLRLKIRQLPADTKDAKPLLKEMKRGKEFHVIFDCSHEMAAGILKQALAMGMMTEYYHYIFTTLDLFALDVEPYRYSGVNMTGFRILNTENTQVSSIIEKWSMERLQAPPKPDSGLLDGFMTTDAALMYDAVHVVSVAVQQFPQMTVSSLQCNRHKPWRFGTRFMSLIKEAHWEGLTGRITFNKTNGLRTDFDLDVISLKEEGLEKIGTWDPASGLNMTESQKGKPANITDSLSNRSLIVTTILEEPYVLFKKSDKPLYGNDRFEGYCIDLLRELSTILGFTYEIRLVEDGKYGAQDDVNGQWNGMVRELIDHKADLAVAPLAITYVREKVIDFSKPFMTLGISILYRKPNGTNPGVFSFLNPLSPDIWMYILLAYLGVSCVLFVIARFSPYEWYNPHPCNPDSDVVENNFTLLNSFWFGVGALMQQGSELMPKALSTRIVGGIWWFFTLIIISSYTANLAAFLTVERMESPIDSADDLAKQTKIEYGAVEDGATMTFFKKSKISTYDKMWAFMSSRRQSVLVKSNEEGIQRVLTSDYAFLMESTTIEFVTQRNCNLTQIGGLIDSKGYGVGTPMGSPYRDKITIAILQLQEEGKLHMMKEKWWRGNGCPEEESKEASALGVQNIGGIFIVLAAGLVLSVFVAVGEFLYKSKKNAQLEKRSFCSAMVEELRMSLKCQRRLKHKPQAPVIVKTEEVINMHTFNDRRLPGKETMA
Procedure: (§1) The numbers of oocytes recorded are in parentheses.
(§2) The cDNA was linearized by restriction enzymes (Thermo Fisher Scientific, Lithuania), and the cRNA encoding the receptor subunits was synthesized from the linear template cDNA using the mMESSAGE mMACHINE kit (Invitrogen/Thermo Fisher Scientific, Lithuania). The α1β1δγ nAChR subunits were injected at a 1:1:1:1 ratio while α4 […] nAChR subunits were injected at a 1:1 ratio. The cDNAs encoding GABA and glycine subunits were provided by Dr. D. Weiss (University of Texas Health Science Center at San Antonio). The cDNAs encoding nAChR subunits were provided by Drs. R. Papke (University of Florida) and S. Heinemann (Salk Institute). The cDNA encoding the purinergic receptor was provided by Dr. R. Hume (University of Michigan).
(§3) Responses in the presence of EU1180-438 were expressed as a percent of control calculated as the average of the responses before and after EU1180-438 exposure. […]
(§4) Defolliculated Xenopus laevis oocytes (stage V-VI) were obtained from Ecocyte BioScience (Austin, Texas), or prepared from commercially available Xenopus ovaries (Xenopus 1, Dexter, MI) as previously described (Hansen, et al., Mol. Pharmacol., 2013). […] Recording electrodes were filled with 0.3-3.0 M KCl, and current responses were recorded at a holding potential of −40 mV.

[1] = test system: GluN1/GluN2 NMDA receptors; assay: Whole-cell patch-clamp of NMDA-activated responses in hippocampal CA1 pyramidal cells, acute brain slices; format: cell-based, mouse; conditions: 30 μM; 0.5 mM NMDA
GABA receptors = GABA receptors in Xenopus oocytes (selectivity); format: cell-based, rat; conditions: 20 μM
Procedure: as §1, §2, §3, §4

GluA1-4 AMPA receptors = assay: AMPA receptors in Xenopus oocytes (selectivity); format: cell-based, rat, human; conditions: 20 μM
nicotinic receptors = assay: Nicotinic acetylcholine receptors in Xenopus oocytes (selectivity); format: cell-based, rat; conditions: 20 μM
Procedure: as §1, §2, §3, §4

[2] = In vivo pharmacokinetics and brain penetration in mice; set-up: species or system mouse
Procedure: EU1180-438 was dosed at 20 mg/kg intraperitoneal in seven freely-fed male C57BL/6 mice. EU1180-438 was formulated in 5% DMA, 10% PEG, 30% HPBCD, qs to volume w/water.
Plasma was sampled at seven points: pre-dose, 0.25, 0.5, 1, 2, 4, and 8 hours (n=3 per time point, 21 plasma samples per treatment group). […] Samples were analyzed via LC-MS/MS to quantify the amount of parent compound present in each sample.
EU1180-438 was tested in male C57BL/6 mice for brain penetrability. After a single intraperitoneal dose of 20 mg/kg the concentration of EU1180-438 in the plasma was measured. […] The concentration of EU1180-438 in the brain was also measured to determine if the compound can pass the blood-brain barrier. The compound was detected in the brain tissue up to 8 hours after dosage administration.

[3] = mice, 20 mg/kg intraperitoneal, 0.25 hour, 20 mg/kg
[4] = mice, 20 mg/kg intraperitoneal, 1 hour, 20 mg/kg
[5] = mice, 20 mg/kg intraperitoneal, 8 hour, 20 mg/kg

COc1ccc(OCC(c2ccc(OC)cc2)N2Cc3ccccc3C2=O)cc1 (racemic) [EU1180-438, 2-(2-(4-methoxyphenoxy)-1-(4-methoxyphenyl)ethyl)isoindolin-1-one]
activity at GluK2 kainate receptors (GluK2 kainate receptors): virtually no activity
effect on NMDA-activated responses mediated by GluN1/GluN2 NMDA receptors [1]: not modulated; also recorded: did not affect
activity at GABA receptors (GABA receptors): virtually no activity
activity at GluA1-4 AMPA receptors (GluA1-4 AMPA receptors): virtually no activity
activity at nicotinic receptors (nicotinic receptors): inhibited some, but not all, nicotinic receptors
time after dosage up to which compound was detected in brain tissue ([2]; male C57BL/6 mice, 20 mg/kg intraperitoneal): up to 8 hours
max concentration in plasma ([2]; male C57BL/6 mice, single intraperitoneal dose of 20 mg/kg): 2.75 µM
concentration at 0.25 h ([2]; male, C57BL/6, mouse, brain, ip, 20 mg/kg, mice, 20 mg/kg intraperitoneal, 0.25 hour, read-out: Brain Concentration): 3680 nM
Kp at 0.25 h ([2]; male, C57BL/6, mouse, brain, ip, 20 mg/kg, mice, 20 mg/kg intraperitoneal, 0.25 hour, read-out: Brain to Plasma Ratio): 1.6
Kp at 0.25 h ([2]; male, C57BL/6, mouse, brain, ip, 20 mg/kg, mice, 20 mg/kg intraperitoneal, 0.25 hour, read-out: Mean Ratio (brain to plasma)): 1.74
concentration at 1 h ([2]; male, C57BL/6, mouse, brain, ip, 20 mg/kg, mice, 20 mg/kg intraperitoneal, 1 hour, read-out: Brain Concentration): 1960 nM
Kp at 1 h ([2]; male, C57BL/6, mouse, brain, ip, 20 mg/kg, mice, 20 mg/kg intraperitoneal, 1 hour, read-out: Brain to Plasma Ratio): 1.57
Kp at 1 h ([2]; male, C57BL/6, mouse, brain, ip, 20 mg/kg, mice, 20 mg/kg intraperitoneal, 1 hour, read-out: Mean Ratio (brain to plasma)): 1.79
concentration at 2 h ([2]; male, C57BL/6, mouse, brain, ip, 20 mg/kg, mice, 20 mg/kg intraperitoneal, 2 hour, read-out: Brain Concentration): 1050 nM
Kp at 2 h ([2]; male, C57BL/6, mouse, brain, ip, 20 mg/kg, mice, 20 mg/kg intraperitoneal, 2 hour, read-out: Mean Ratio (brain to plasma)): 0.88
concentration at 8 h ([2]; male, C57BL/6, mouse, brain, ip, 20 mg/kg, mice, 20 mg/kg intraperitoneal, 8 hour, read-out: Brain Concentration): 60 nM
Kp at 8 h ([2]; male, C57BL/6, mouse, brain, ip, 20 mg/kg, mice, 20 mg/kg intraperitoneal, 8 hour, read-out: Brain to Plasma Ratio): 1.37
Kp at 8 h ([2]; male, C57BL/6, mouse, brain, ip, 20 mg/kg, mice, 20 mg/kg intraperitoneal, 8 hour, read-out: Mean Ratio (brain to plasma)): 1.02
concentration at 0.25 h ([2]; male, C57BL/6, mouse, plasma, ip, 20 mg/kg, mice, 20 mg/kg intraperitoneal, 0.25 hour, read-out: Plasma Concentration): 2300 nM
concentration at 1 h ([2]; male, C57BL/6, mouse, plasma, ip, 20 mg/kg, mice, 20 mg/kg intraperitoneal, 1 hour, read-out: Plasma Concentration): 1250 nM
concentration at 2 h ([2]; male, C57BL/6, mouse, plasma, ip, 20 mg/kg, mice, 20 mg/kg intraperitoneal, 2 hour, read-out: Plasma Concentration): 890 nM
concentration at 8 h ([2]; male, C57BL/6, mouse, plasma, ip, 20 mg/kg, mice, 20 mg/kg intraperitoneal, 8 hour, read-out: Plasma Concentration): 50 nM
Brain to Plasma Ratio [2, 3]: 1.98 and 1.64
Plasma Concentration [2, 3]: 2050 nM and 2210 nM
concentration at 0.25 h ([2]; mice, 20 mg/kg intraperitoneal, 0.25 hour, 20 mg/kg, read-out: Brain Concentration): 4060 nM and 3630 nM
Brain to Plasma Ratio [2, 4]: 1.96 and 1.83
Plasma Concentration [2, 4]: 1040 nM and 1170 nM
concentration at 0.25 h ([2]; mice, 20 mg/kg intraperitoneal, 1 hour, 20 mg/kg, read-out: Brain Concentration): 2040 nM and 2140 nM
Plasma Concentration ([2]; mice, 20 mg/kg intraperitoneal, 2 hour, 20 mg/kg): 920 nM and 960 nM
concentration at 0.25 h ([2]; mice, 20 mg/kg intraperitoneal, 2 hour, 20 mg/kg, read-out: Brain Concentration): 660 nM and 690 nM
Brain to Plasma Ratio [2, 5]: 0.90 and 0.72
Plasma Concentration [2, 5]: 40 nM
concentration at 0.25 h ([2]; mice, 20 mg/kg intraperitoneal, 8 hour, 20 mg/kg, read-out: Brain Concentration): 40 nM and 30 nM
half-life ([2]; mouse, ip, plasma, male C57BL/6 mice, 20 mg/kg intraperitoneal): 1.57 h
